Assay results as given in patent publication US12503438B2, “Compounds for the treatment of kinase-dependent disorders” (Exelixis, Inc., priority 2019, dated 2025).

Assays:
AXL = target: T1, AXL (Homo sapiens, UniProt P30530); assay: AXL autophosphorylation ELISA in A-172 cells; type: cell-based; settings: cellular activity, Gas6-stimulated, phospho-AXL ELISA
T1 construct: endogenous in cells; host or cells: A-172 glioblastoma cells (ATCC #CRL-1620)
T1 sequence (P30530 26-894): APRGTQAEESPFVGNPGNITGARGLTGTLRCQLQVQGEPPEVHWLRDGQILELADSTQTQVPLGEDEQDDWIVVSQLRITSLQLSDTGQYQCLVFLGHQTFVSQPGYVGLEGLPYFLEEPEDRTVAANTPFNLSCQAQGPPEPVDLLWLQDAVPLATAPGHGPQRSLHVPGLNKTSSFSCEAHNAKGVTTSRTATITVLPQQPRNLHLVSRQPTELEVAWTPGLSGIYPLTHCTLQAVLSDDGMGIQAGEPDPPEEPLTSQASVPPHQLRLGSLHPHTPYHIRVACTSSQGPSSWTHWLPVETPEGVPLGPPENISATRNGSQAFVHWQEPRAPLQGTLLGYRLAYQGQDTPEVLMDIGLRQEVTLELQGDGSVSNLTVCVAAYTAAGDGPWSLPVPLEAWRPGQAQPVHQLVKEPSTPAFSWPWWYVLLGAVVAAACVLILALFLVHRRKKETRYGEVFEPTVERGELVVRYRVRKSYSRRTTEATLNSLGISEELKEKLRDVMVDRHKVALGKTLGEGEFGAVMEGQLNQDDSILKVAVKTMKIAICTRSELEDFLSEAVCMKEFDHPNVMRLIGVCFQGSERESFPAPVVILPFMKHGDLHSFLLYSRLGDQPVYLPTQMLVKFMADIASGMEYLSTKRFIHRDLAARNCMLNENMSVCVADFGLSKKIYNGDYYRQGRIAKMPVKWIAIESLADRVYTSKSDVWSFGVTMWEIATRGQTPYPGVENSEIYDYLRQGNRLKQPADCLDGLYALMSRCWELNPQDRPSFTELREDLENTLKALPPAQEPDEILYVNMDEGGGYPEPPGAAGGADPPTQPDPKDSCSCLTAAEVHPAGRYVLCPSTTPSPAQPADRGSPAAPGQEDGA
Procedure, shortened: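 Serum-starved (24 h) A-172 glioblastoma cells got an 8-point compound series (0.3% DMSO) for 1 h, then 1 μg/mL human Gas6 for 15 min. Lysate phospho-AXL quantified by ELISA against phospho-AXL standard, normalized to DMSO and reference-inhibitor controls; IC50 by 4-parameter logistic fit.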

Met = Met (Homo sapiens, UniProt P08581); assay: Met autophosphorylation ELISA in PC-3 cells; type: cell-based; design: endogenous in cells; host or cells: PC-3 prostate cancer cells (ATCC #CRL-1435); settings: cellular activity, HGF-stimulated, phospho-Met ELISA, read-out: c-Met IC50
Met, sequence (P08581 25-1390): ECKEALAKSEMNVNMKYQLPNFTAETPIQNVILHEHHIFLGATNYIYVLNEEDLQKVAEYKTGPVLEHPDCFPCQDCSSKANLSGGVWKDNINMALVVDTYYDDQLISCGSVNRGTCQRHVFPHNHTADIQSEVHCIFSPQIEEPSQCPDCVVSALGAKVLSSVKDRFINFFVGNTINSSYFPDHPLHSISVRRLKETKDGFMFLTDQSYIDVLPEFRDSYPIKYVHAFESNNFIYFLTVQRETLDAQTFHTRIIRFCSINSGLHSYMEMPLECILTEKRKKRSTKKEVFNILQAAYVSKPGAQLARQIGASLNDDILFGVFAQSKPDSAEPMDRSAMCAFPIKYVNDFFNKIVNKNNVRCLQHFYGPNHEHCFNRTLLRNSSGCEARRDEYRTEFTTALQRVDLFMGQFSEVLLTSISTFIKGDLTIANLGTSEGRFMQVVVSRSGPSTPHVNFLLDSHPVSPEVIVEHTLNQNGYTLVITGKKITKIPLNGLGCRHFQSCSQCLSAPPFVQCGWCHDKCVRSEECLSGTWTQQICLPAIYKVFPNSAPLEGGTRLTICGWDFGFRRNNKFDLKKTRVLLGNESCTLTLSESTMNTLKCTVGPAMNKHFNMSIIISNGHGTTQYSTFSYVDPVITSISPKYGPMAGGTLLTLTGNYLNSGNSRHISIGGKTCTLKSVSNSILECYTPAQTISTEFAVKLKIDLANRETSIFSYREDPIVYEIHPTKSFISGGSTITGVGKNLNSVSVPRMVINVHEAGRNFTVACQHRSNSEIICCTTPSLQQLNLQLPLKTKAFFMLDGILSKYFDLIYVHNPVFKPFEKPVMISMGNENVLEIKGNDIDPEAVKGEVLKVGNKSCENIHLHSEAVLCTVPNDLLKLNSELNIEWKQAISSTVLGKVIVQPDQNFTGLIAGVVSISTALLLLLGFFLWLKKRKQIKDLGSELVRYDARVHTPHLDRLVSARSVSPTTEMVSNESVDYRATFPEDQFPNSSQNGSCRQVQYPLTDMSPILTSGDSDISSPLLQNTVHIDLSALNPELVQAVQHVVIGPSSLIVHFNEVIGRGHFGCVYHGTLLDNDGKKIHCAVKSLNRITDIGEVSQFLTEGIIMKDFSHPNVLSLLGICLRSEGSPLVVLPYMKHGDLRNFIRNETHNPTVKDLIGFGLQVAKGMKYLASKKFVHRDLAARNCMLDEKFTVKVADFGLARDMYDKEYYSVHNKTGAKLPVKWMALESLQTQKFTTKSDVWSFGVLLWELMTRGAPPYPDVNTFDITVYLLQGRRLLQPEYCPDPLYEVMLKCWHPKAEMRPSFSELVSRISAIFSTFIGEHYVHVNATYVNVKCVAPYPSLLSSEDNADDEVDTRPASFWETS
Procedure, shortened: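 Phospho-Met (panTyr) sandwich ELISA on lysates of PC-3 cells given 100 ng/mL HGF for 10 min after 1 h compound exposure (8-point curve, 0.3% DMSO) following 3 h serum starvation. Normalised to HGF-stimulated DMSO and reference-inhibitor wells; 4-parameter logistic IC50.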

Row | IC50 (AXL) | IC50 (Met) | Structure (SMILES)
1 | 10 to 100 nM | 100 to 300 nM | Cc1cc(F)cc(C)c1NC(=O)C1(C(=O)Nc2ccc(Oc3ccnc4cc(-c5cnn(C)c5)ccc34)cc2)CC1 [Compound 82, 1-N′-(4-Fluoro-2,6-dimethylphenyl)-1-N-[4-[7-(1-methylpyrazol-4-yl)quinolin-4-yl]oxyphenyl]cyclopropane-1,1-dicarboxamide]
2 | > 300 nM | > 300 nM | CN(C(=O)C1(C(=O)Nc2ccc(Oc3ccnc4cc(-c5cnn(C)c5)ccc34)cc2)CC1)c1ccc(F)cc1 [Compound 82A, 1-N′-(4-Fluorophenyl)-1-N′-methyl-1-N-[4-[7-(1-methylpyrazol-4-yl)quinolin-4-yl]oxyphenyl]cyclopropane-1,1-dicarboxamide]
3 | 100 to 300 nM | 10 to 100 nM | O=C(Nc1ccc(F)cc1)C1(C(=O)Nc2ccc(Oc3ccnc4cc(C5CCNC5)ccc34)cc2)CC1 (centres unmarked) [Compound 83, 1-N′-(4-Fluorophenyl)-1-N-[4-(7-pyrrolidin-3-ylquinolin-4-yl)oxyphenyl]cyclopropane-1,1-dicarboxamide]
4 | 10 to 100 nM | 10 to 100 nM | O=C(Nc1ccc(F)cc1)C1(C(=O)Nc2ccc(Oc3ccnc4cc(-c5ccn(C(F)F)n5)ccc34)cc2)CC1 [Compound 84, 1-N-[4-[7-[1-(Difluoromethyl)pyrazol-3-yl]quinolin-4-yl]oxyphenyl]-1-N′-(4-fluorophenyl)cyclopropane-1,1-dicarboxamide]
5 | 10 to 100 nM | 10 to 100 nM | O=C(Nc1ccc(F)cc1)C1(C(=O)Nc2ccc(Oc3ccnc4cc(-c5ccccn5)ccc34)cc2)CC1 [Compound 85, 1-N′-(4-Fluorophenyl)-1-N-[4-(7-pyridin-2-ylquinolin-4-yl)oxyphenyl]cyclopropane-1,1-dicarboxamide]
6 | 10 to 100 nM | 10 to 100 nM | Cn1ncc(-c2ccc3c(Oc4ccc(NC(=O)C5(C(=O)Nc6ccc(F)cc6)CC5)cc4)ccnc3c2)n1 [Compound 86, 1-N′-(4-Fluorophenyl)-1-N-[4-[7-(2-methyltriazol-4-yl)quinolin-4-yl]oxyphenyl]cyclopropane-1,1-dicarboxamide]
7 | ≤ 10 nM | 10 to 100 nM | O=C(Nc1ccc(F)cc1)C1(C(=O)Nc2ccc(Oc3ccnc4cc(-c5ccc[n+]([O-])c5)ccc34)cc2)CC1 [Compound 109, 1-N′-(4-Fluorophenyl)-1-N-[4-[7-(1-oxidopyridin-1-ium-3-yl)quinolin-4-yl]oxyphenyl]cyclopropane-1,1-dicarboxamide]
8 | 10 to 100 nM | 10 to 100 nM | Cc1cc2c(Oc3c(F)cc(NC(=O)C4(C(=O)Nc5ccc(F)cc5)CC4)c(F)c3F)ccnc2cc1-c1cnn(C)c1 [Compound 110, 1-N-(4-Fluorophenyl)-1-N′-[2,3,5-trifluoro-4-[6-methyl-7-(1-methylpyrazol-4-yl)quinolin-4-yl]oxyphenyl]cyclopropane-1,1-dicarboxamide]
9 | 10 to 100 nM | 100 to 300 nM | CN1CCN(c2cc(-c3ccc4c(Oc5ccc(NC(=O)C6(C(=O)Nc7ccc(F)cc7)CC6)cc5)ccnc4c3)ccn2)CC1 [Compound 111, 1-N′-(4-Fluorophenyl)-1-N-[4-[7-[2-(4-methylpiperazin-1-yl)pyridin-4-yl]quinolin-4-yl]oxyphenyl]cyclopropane-1,1-dicarboxamide]
10 | 10 to 100 nM | 10 to 100 nM | Cc1cc2c(Oc3cc(Cl)c(NC(=O)C4(C(=O)Nc5ccc(F)cc5)CC4)cc3F)ccnc2cc1-c1cnn(C)c1 [Compound 112, 1-N′-[2-Chloro-5-fluoro-4-[6-methyl-7-(1-methylpyrazol-4-yl)quinolin-4-yl]oxyphenyl]-1-N-(4-fluorophenyl)cyclopropane-1,1-dicarboxamide]
11 | 10 to 100 nM | 10 to 100 nM | O=C(Nc1ccc(F)cc1)C1(C(=O)Nc2ccc(Oc3ccnc4cc(-c5cccnc5)ccc34)c(F)c2)CC1 [Compound 113, 1-N-(4-Fluorophenyl)-1-N′-[3-fluoro-4-(7-pyridin-3-ylquinolin-4-yl)oxyphenyl]cyclopropane-1,1-dicarboxamide]
12 | 10 to 100 nM | 10 to 100 nM | O=C(Nc1ccc(F)cc1)C1(C(=O)Nc2ccc(Oc3ccnc4cc(-c5ccncn5)ccc34)cc2)CC1 [Compound 114, 1-N′-(4-Fluorophenyl)-1-N-[4-(7-pyrimidin-4-ylquinolin-4-yl)oxyphenyl]cyclopropane-1,1-dicarboxamide]
13 | ≤ 10 nM | 10 to 100 nM | O=C(Nc1ccc(F)cc1)C1(C(=O)Nc2cc(F)c(Oc3ccnc4cc(-c5cccnc5)ccc34)cc2F)CC1 [Compound 115, 1-N′-[2,5-Difluoro-4-(7-pyridin-3-ylquinolin-4-yl)oxyphenyl]-1-N-(4-fluorophenyl)cyclopropane-1,1-dicarboxamide]
14 | 10 to 100 nM | 10 to 100 nM | O=C(Nc1ccc(F)cc1)C1(C(=O)Nc2ccc(Oc3ccnc4cc(-c5cncs5)ccc34)cc2)CC1 [Compound 116, 1-N′-(4-Fluorophenyl)-1-N-[4-[7-(1,3-thiazol-5-yl)quinolin-4-yl]oxyphenyl]cyclopropane-1,1-dicarboxamide]
15 | ≤ 10 nM | 10 to 100 nM | Cn1ccc(-c2ccc3c(Oc4ccc(NC(=O)C5(C(=O)Nc6ccc(F)cc6)CC5)cc4)ccnc3c2)cc1=O [Compound 117, 1-N′-(4-Fluorophenyl)-1-N-[4-[7-(1-methyl-2-oxopyridin-4-yl)quinolin-4-yl]oxyphenyl]cyclopropane-1,1-dicarboxamide]
16 | ≤ 10 nM | 10 to 100 nM | O=C(Nc1ccc(F)cc1)C1(C(=O)Nc2cc(F)c(Oc3ccnc4cc(-c5cnn(C(F)F)c5)ccc34)cc2F)CC1 [Compound 118, 1-N′-[4-[7-[1-(Difluoromethyl)pyrazol-4-yl]quinolin-4-yl]oxy-2,5-difluorophenyl]-1-N-(4-fluorophenyl)cyclopropane-1,1-dicarboxamide]
17 | ≤ 10 nM | 10 to 100 nM | Cn1cc(-c2ccc3c(Oc4ccc(NC(=O)C5(C(=O)Nc6ccc(F)cc6)CC5)cc4)ccnc3c2)ccc1=O [Compound 119, 1-N′-(4-Fluorophenyl)-1-N-[4-[7-(1-methyl-6-oxopyridin-3-yl)quinolin-4-yl]oxyphenyl]cyclopropane-1,1-dicarboxamide]
18 | 10 to 100 nM | 10 to 100 nM | Cc1cc2c(Oc3ccc(NC(=O)C4(C(=O)Nc5ccc(F)cc5)CC4)cc3)ccnc2cc1-c1ncc[nH]1 [Compound 120, 1-N′-(4-Fluorophenyl)-1-N-[4-[7-(1H-imidazol-2-yl)-6-methylquinolin-4-yl]oxyphenyl]cyclopropane-1,1-dicarboxamide]
19 | ≤ 10 nM | 10 to 100 nM | Cc1cc2c(Oc3cc(F)c(NC(=O)C4(C(=O)Nc5ccc(F)cc5)CC4)cc3F)ccnc2cc1-c1ncc[nH]1 [Compound 121, 1-N′-[2,5-Difluoro-4-[7-(1H-imidazol-2-yl)-6-methylquinolin-4-yl]oxyphenyl]-1-N-(4-fluorophenyl)cyclopropane-1,1-dicarboxamide]
20 | 10 to 100 nM | 10 to 100 nM | Cc1cc2c(Oc3ccc(NC(=O)C4(C(=O)Nc5ccc(F)cc5)CC4)cc3F)ccnc2cc1-c1ncc[nH]1 [Compound 122, 1-N′-[3-Fluoro-4-[7-(1H-imidazol-2-yl)-6-methylquinolin-4-yl]oxyphenyl]-1-N-(4-fluorophenyl)cyclopropane-1,1-dicarboxamide]
21 | ≤ 10 nM | 10 to 100 nM | O=C(Nc1ccc(F)cc1)C1(C(=O)Nc2ccc(Oc3ccnc4cc(-c5cnn(C(F)F)c5)ccc34)c(F)c2)CC1 [Compound 123, 1-N′-[4-[7-[1-(Difluoromethyl)pyrazol-4-yl]quinolin-4-yl]oxy-3-fluorophenyl]-1-N-(4-fluorophenyl)cyclopropane-1,1-dicarboxamide]
22 | 10 to 100 nM | 10 to 100 nM | O=C(Nc1ccc(F)cc1)C1(C(=O)Nc2ccc(Oc3ccnc4cc(-c5cc6n(n5)CCC6)ccc34)cc2)CC1 [Compound 124, 1-N-[4-[7-(5,6-Dihydro-4H-pyrrolo[1,2-b]pyrazol-2-yl)quinolin-4-yl]oxyphenyl]-1-N′-(4-fluorophenyl)cyclopropane-1,1-dicarboxamide]
